Test results published in paper PMC9898036, “VIP152 is a selective CDK9 inhibitor with pre-clinical in vitro and in vivo efficacy in chronic lymphocytic leukemia” (Leukemia, 2022).
Where two headings read alike, the source gives them in different places.

Assays:
Assay in all cases: DiscoverX KINOMEscan kinase profiling (468 assays)
Format in all cases: binding
human kinome [1] = target: human kinome (Homo sapiens, UniProt P49336); settings: CDK8; 100 nM; read-out: Percent Control
Outline: (§1)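 VIP152 was run in DMSO, alongside a DMSO control. Readout was qPCR of DNA-tagged kinase still bound to bead-immobilized biotinylated kinase ligands after compound competition.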

human kinome [2] = target: human kinome (Homo sapiens, UniProt P36888); settings: 100 nM, read-out: Percent Control
Outline: as §1

human kinome [3] = target: human kinome (Homo sapiens, UniProt Q99558); settings: read-out: Percent Control
human kinome (Homo sapiens, UniProt Q99558), sequence (Q99558 whole entry): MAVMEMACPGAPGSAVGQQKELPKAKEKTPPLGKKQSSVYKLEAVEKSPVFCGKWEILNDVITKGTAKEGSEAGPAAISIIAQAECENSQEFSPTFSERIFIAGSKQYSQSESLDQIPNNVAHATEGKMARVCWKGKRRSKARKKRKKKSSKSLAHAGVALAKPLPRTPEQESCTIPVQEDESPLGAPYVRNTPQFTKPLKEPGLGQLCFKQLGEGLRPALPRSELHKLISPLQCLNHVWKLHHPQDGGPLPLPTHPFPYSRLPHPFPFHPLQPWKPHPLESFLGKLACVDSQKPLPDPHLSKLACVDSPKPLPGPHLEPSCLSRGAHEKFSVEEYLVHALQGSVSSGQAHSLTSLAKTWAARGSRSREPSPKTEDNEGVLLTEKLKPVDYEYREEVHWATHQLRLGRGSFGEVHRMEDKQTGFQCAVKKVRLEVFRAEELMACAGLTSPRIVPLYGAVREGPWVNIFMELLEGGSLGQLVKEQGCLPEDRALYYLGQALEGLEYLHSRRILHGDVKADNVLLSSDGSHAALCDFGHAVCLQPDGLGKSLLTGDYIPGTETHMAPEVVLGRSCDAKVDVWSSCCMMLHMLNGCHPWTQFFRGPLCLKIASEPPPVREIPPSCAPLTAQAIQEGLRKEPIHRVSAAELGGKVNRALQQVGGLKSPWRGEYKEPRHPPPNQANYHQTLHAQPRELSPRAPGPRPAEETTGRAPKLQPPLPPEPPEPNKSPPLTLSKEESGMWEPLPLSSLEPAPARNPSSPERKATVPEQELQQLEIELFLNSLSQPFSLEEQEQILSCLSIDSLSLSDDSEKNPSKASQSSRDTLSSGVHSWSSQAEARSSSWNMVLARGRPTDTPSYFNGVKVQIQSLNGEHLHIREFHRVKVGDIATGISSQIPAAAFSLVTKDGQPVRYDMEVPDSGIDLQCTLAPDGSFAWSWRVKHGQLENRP
Outline: as §1

human kinome [4] = target: human kinome (Homo sapiens, UniProt P29322); settings: EPHA8; 100 nM; read-out: Percent Control
Outline: as §1

human kinome [5] = target: human kinome (Homo sapiens, UniProt Q9H1R3); settings: read-out: Percent Control
human kinome (Homo sapiens, UniProt Q9H1R3), sequence (Q9H1R3 whole entry): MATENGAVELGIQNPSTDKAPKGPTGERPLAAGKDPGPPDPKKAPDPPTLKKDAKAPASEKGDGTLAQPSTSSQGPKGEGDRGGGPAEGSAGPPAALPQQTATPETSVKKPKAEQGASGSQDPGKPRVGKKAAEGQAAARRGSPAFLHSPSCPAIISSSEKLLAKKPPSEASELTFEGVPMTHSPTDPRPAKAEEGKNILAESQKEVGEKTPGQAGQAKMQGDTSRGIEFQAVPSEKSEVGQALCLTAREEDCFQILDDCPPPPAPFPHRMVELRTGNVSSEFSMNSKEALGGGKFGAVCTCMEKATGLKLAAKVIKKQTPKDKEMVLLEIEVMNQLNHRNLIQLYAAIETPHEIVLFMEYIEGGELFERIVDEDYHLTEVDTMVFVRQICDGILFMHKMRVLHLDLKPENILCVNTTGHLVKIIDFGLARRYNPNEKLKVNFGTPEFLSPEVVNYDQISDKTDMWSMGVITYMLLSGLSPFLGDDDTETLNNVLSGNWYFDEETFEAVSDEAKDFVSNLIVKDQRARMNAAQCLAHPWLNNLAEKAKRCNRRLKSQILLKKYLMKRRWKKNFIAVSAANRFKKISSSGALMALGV
Outline: as §1

human kinome [6] = target: human kinome (Homo sapiens, UniProt Q16566); settings: CAMK4; 100 nM; read-out: Percent Control
Outline: as §1

human kinome [7] = target: human kinome (Homo sapiens, UniProt Q9UM73, C1156Y); settings: ALK(C1156Y); 100 nM; read-out: Percent Control
Outline: as §1

human kinome [8] = target: human kinome (Homo sapiens, UniProt Q13177); settings: read-out: Percent Control
human kinome (Homo sapiens, UniProt Q13177), sequence (Q13177 whole entry): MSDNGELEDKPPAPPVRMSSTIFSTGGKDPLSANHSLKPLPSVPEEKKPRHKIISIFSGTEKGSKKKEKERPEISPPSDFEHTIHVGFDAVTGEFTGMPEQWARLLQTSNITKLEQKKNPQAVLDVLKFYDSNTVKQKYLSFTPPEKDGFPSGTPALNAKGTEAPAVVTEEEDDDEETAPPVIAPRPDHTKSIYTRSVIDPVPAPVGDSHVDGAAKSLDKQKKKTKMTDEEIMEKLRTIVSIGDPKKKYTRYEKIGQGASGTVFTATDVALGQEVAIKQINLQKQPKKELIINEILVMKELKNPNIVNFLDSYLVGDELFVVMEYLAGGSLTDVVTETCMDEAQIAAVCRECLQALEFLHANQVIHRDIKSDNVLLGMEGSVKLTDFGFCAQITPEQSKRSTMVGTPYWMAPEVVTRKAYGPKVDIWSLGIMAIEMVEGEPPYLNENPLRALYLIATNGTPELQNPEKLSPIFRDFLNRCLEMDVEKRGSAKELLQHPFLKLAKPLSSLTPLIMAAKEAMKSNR
Outline: as §1

human kinome [9] = target: human kinome (Homo sapiens, UniProt P07333); settings: 100 nM, read-out: Percent Control
human kinome (Homo sapiens, UniProt P07333), sequence (P07333 20-972): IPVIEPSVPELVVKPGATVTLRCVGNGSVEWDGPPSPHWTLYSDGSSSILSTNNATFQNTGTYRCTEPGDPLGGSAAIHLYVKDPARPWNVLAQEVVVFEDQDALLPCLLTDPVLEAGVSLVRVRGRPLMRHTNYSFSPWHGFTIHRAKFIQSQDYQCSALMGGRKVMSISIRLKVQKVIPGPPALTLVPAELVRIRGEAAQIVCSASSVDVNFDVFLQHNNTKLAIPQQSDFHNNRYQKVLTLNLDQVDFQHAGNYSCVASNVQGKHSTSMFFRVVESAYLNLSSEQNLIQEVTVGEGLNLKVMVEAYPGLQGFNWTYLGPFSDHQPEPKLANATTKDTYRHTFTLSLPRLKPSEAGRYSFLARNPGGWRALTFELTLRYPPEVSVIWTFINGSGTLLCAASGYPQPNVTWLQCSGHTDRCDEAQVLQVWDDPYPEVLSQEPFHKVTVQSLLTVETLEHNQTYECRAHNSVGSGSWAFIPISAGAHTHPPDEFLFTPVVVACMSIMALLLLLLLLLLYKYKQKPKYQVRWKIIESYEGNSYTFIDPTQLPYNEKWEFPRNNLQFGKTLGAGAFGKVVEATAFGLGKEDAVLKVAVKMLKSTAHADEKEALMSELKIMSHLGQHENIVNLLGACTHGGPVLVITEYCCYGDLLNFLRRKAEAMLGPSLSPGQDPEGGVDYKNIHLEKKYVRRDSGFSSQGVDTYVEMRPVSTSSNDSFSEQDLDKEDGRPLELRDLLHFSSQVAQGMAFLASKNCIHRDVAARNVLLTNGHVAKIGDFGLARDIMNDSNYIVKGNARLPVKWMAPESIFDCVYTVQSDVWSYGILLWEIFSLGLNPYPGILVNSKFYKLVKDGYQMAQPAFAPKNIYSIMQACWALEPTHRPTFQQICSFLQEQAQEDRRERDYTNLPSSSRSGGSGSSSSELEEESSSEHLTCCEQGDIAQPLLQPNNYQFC
Outline: as §1

human kinome [10] = target: human kinome (Homo sapiens, UniProt Q9UM73, L1196M); settings: ALK(L1196M); 100 nM; read-out: Percent Control
Outline: as §1

human kinome [11] = target: human kinome (Homo sapiens, UniProt Q16832); settings: DDR2; 100 nM; read-out: Percent Control
Outline: as §1

human kinome [12] = target: human kinome (Homo sapiens, UniProt P42680); settings: kinase TEC (Entrez TEC); compound concentration 1000 nM; read-out: Percent Control
Outline: as §1

human kinome [13] = target: human kinome (Homo sapiens, UniProt Q96NX5); settings: CAMK1G; 100 nM; read-out: Percent Control
Outline: as §1

human kinome [14] = target: human kinome (Homo sapiens, UniProt Q9P1W9); settings: read-out: Percent Control
human kinome (Homo sapiens, UniProt Q9P1W9), sequence (Q9P1W9 whole entry): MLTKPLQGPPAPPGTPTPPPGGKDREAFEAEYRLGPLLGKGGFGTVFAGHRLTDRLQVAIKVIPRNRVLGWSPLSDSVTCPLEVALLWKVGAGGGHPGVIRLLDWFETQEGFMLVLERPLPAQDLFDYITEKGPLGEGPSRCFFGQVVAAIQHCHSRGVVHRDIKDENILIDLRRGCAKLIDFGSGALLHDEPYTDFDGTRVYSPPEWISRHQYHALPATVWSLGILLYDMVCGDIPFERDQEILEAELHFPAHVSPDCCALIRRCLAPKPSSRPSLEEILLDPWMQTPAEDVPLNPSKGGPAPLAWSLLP
Outline: as §1

human kinome [15] = target: human kinome (Homo sapiens, UniProt Q9P0L2); settings: MARK1; 100 nM; read-out: Percent Control
Outline: as §1

human kinome [16] = target: human kinome (Homo sapiens, UniProt P78362); settings: kinase SRPK2 (Entrez SRPK2); compound concentration 1000 nM; read-out: Percent Control
Outline: as §1

human kinome [17] = target: human kinome (Homo sapiens, UniProt Q9UBE8); settings: read-out: Percent Control
human kinome (Homo sapiens, UniProt Q9UBE8), sequence (Q9UBE8 whole entry): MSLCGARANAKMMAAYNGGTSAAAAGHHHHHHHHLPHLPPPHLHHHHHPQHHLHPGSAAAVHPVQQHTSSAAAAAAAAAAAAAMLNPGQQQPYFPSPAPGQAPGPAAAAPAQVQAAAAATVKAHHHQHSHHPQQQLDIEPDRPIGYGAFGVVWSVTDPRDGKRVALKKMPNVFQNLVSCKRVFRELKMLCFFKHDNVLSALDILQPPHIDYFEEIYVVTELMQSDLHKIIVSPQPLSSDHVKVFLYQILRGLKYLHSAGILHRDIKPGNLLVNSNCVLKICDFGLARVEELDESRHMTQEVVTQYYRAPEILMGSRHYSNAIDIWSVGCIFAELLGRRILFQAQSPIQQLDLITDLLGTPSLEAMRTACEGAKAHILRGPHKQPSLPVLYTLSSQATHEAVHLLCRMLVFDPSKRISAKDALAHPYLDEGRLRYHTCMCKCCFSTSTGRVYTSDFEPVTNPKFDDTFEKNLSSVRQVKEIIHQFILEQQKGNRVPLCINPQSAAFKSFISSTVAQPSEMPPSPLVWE
Outline: as §1

human kinome [18] = target: human kinome (Homo sapiens, UniProt P10721, L576P); settings: KIT(L576P); 100 nM; read-out: Percent Control
Outline: as §1

human kinome [19] = target: human kinome (Homo sapiens, UniProt Q8IYT8); settings: kinase ULK2 (Entrez ULK2); compound concentration 1000 nM; read-out: Percent Control
Outline: as §1

human kinome [20] = target: human kinome (Homo sapiens, UniProt Q5S007); settings: LRRK2; 100 nM; read-out: Percent Control
Outline: as §1

human kinome [21] = target: human kinome (Homo sapiens, UniProt Q8TF76); settings: HASPIN (Entrez GSG2); 100 nM; read-out: Percent Control
Outline: as §1

human kinome [22] = target: human kinome (Homo sapiens, UniProt P17948); settings: FLT1; 100 nM; read-out: Percent Control
Outline: as §1

human kinome [23] = target: human kinome (Homo sapiens, UniProt P52333); settings: JAK3(JH1domain-catalytic); 100 nM; read-out: Percent Control
Outline: as §1

human kinome [24] = target: human kinome (Homo sapiens, UniProt Q9BYP7); settings: kinase WNK3 (Entrez WNK3); compound concentration 1000 nM; read-out: Percent Control
Outline: as §1

human kinome [25] = target: human kinome (Homo sapiens, UniProt P23458); settings: 100 nM, read-out: Percent Control
Outline: as §1

human kinome [26] = target: human kinome (Homo sapiens, UniProt P37173); settings: kinase TGFBR2 (Entrez TGFBR2); compound concentration 1000 nM; read-out: Percent Control
Outline: as §1

human kinome [27] = target: human kinome (Homo sapiens, UniProt Q15208); settings: read-out: Percent Control
human kinome (Homo sapiens, UniProt Q15208), sequence (Q15208 whole entry): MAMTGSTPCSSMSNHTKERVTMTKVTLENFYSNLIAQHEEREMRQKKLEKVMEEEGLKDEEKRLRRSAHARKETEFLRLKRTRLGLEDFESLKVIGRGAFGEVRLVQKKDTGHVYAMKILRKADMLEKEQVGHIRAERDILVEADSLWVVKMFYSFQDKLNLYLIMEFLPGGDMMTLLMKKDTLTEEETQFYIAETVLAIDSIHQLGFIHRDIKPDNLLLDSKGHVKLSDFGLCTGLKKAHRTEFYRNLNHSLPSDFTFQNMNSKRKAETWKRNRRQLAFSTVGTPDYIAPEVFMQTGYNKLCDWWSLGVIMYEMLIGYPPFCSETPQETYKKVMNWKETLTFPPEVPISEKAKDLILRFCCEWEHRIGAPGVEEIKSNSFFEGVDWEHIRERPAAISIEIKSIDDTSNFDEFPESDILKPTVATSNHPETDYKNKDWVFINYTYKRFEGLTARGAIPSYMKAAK
Outline: as §1

human kinome [28] = target: human kinome (Homo sapiens, UniProt Q05655); settings: read-out: Percent Control
human kinome (Homo sapiens, UniProt Q05655), sequence (Q05655 whole entry): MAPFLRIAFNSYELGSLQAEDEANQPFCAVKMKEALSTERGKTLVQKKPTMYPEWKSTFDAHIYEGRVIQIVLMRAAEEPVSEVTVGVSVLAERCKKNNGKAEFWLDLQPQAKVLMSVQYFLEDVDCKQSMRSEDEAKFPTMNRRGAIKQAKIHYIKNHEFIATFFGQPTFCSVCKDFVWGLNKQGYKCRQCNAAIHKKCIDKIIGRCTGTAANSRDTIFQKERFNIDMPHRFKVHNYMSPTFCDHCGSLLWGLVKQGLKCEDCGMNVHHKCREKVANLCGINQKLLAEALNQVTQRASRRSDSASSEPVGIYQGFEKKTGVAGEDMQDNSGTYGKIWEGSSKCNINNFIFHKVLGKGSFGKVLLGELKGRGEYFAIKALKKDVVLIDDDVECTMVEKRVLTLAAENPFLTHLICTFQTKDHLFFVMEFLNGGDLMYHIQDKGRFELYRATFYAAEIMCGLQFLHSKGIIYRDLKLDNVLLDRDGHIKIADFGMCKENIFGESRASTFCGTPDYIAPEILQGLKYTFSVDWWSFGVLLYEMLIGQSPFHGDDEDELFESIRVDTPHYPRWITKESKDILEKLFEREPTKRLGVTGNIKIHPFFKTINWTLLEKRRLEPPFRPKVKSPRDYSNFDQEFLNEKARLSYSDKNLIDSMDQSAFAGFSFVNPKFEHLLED
Outline: as §1

human kinome [29] = target: human kinome (Homo sapiens, UniProt Q8NE63); settings: HIPK4; 100 nM; read-out: Percent Control
Outline: as §1

human kinome [30] = target: human kinome (Homo sapiens, UniProt Q96RR4); settings: CAMKK2; 100 nM; read-out: Percent Control
Outline: as §1

`COc1cc(F)ccc1-c1cc(Nc2cc(CS(C)(=N)=O)ccn2)ncc1F` (stereo not shown) [VIP152] was tested, and the remaining binding at 0.1 µM (human kinome [1]) was 100%, the remaining binding at 0.1 µM (human kinome [2]; FLT3-autoinhibited) was 99% and the remaining binding at 0.1 µM (human kinome [2]; FLT3) was 72%. The remaining binding at 0.1 µM (human kinome [3]; NIK (Entrez MAP3K14), 100 nM) was 87%, the remaining binding at 1 µM (human kinome [3]; kinase NIK (Entrez MAP3K14), compound concentration 1000 nM) was 88% and the remaining binding at 0.1 µM (human kinome [4]) was 100%. It also gave a remaining binding at 0.1 µM (human kinome [5]; MYLK2, 100 nM) of 100%, a remaining binding at 1 µM (human kinome [5]; kinase MYLK2 (Entrez MYLK2), compound concentration 1000 nM) of 91% and a remaining binding at 0.1 µM (human kinome [6]) of 100%. It also gave a remaining binding at 0.1 µM (human kinome [7]) of 100%, a remaining binding at 0.1 µM (human kinome [8]; PAK2, 100 nM) of 81% and a remaining binding at 1 µM (human kinome [8]; kinase PAK2 (Entrez PAK2), compound concentration 1000 nM) of 100%. It also gave a remaining binding at 0.1 µM (human kinome [9]; CSF1R-autoinhibited) of 95%, a remaining binding at 0.1 µM (human kinome [9]; CSF1R) of 100% and a remaining binding at 0.1 µM (human kinome [10]) of 100%. The remaining binding at 0.1 µM (human kinome [11]) was 79%, the remaining binding at 1 µM (human kinome [12]) was 100% and the remaining binding at 0.1 µM (human kinome [13]) was 100%. The remaining binding at 0.1 µM (human kinome [14]; PIM2, 100 nM) was 100%, the remaining binding at 1 µM (human kinome [14]; kinase PIM2 (Entrez PIM2), compound concentration 1000 nM) was 100% and the remaining binding at 0.1 µM (human kinome [15]) was 82%. For the same compound, the remaining binding at 1 µM (human kinome [16]) was 89%, the remaining binding at 0.1 µM (human kinome [17]; NLK, 100 nM) was 100% and the remaining binding at 1 µM (human kinome [17]; kinase NLK (Entrez NLK), compound concentration 1000 nM) was 59%. The remaining binding at 0.1 µM (human kinome [18]) was 100%, the remaining binding at 1 µM (human kinome [19]) was 97% and the remaining binding at 0.1 µM (human kinome [20]) was 100%. It also gave a remaining binding at 0.1 µM (human kinome [21]) of 93%, a remaining binding at 0.1 µM (human kinome [22]) of 100% and a remaining binding at 0.1 µM (human kinome [23]) of 100%. For the same compound, the remaining binding at 1 µM (human kinome [24]) was 92%, the remaining binding at 0.1 µM (human kinome [25]; JAK1(JH1domain-catalytic)) was 87% and the remaining binding at 0.1 µM (human kinome [25]; JAK1(JH2domain-pseudokinase)) was 100%. It also gave a remaining binding at 1 µM (human kinome [26]) of 93%, a remaining binding at 0.1 µM (human kinome [27]; NDR1 (Entrez STK38), 100 nM) of 100% and a remaining binding at 1 µM (human kinome [27]; kinase NDR1 (Entrez STK38), compound concentration 1000 nM) of 93%. The remaining binding at 0.1 µM (human kinome [28]; PRKCD, 100 nM) was 100%, the remaining binding at 1 µM (human kinome [28]; kinase PRKCD (Entrez PRKCD), compound concentration 1000 nM) was 83% and the remaining binding at 0.1 µM (human kinome [29]) was 100%. For the same compound, the remaining binding at 0.1 µM (human kinome [30]) was 92%.
